# Molecular target: T1, Aminopeptidase N (Sus scrofa, UniProt P15145)
# T1 sequence (P15145 whole entry): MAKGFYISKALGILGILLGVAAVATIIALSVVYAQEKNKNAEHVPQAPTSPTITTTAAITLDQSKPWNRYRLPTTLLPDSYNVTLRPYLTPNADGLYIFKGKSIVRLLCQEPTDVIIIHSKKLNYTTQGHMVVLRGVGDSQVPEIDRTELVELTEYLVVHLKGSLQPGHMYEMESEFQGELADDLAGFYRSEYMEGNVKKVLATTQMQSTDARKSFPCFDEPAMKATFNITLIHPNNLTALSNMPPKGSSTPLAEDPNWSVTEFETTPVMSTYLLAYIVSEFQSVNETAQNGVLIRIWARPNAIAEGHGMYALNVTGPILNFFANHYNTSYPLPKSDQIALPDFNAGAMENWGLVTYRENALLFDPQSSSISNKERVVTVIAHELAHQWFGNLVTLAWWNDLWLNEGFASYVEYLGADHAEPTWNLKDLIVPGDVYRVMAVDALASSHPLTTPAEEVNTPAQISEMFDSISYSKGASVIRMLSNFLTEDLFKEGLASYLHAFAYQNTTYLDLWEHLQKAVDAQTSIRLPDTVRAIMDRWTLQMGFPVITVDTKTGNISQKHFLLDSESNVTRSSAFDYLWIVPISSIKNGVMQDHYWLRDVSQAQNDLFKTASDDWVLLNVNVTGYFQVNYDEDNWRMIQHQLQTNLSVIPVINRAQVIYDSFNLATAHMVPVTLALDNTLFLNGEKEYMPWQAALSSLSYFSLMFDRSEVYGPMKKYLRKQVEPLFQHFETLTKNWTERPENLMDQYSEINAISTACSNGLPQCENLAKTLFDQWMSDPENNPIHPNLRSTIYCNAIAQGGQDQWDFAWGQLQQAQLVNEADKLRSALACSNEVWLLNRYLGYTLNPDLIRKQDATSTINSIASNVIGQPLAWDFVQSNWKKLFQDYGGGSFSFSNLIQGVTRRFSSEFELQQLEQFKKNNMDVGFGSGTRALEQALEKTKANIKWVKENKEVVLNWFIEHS
# Experiment: Inhibition of porcine microsomal aminopeptidase N preincubated for 30 mins using L-Leu-p-nitroanilide as substrate by UV-VIS spectrophotometer
# Conditions: not given
row,Structure (SMILES),IC50
1,Cc1ccc(S(=O)(=O)N2CC3(C[C@H]2C(=O)N/N=C/c2ccccc2F)SCCS3)cc1,> 1000 µM
2,Cc1ccc(S(=O)(=O)N2CC3(C[C@H]2C(=O)NN)SCCS3)cc1,> 1000 µM
3,Cc1ccc(S(=O)(=O)N2CC3(C[C@H]2C(=O)N/N=C/c2ccccc2Br)SCCS3)cc1,> 1000 µM
4,Cc1ccc(S(=O)(=O)N2CC3(C[C@H]2C(=O)N/N=C/c2ccccc2[N+](=O)[O-])SCCS3)cc1,> 1000 µM
5,Cc1ccc(/C=N/NC(=O)[C@@H]2CC3(CN2S(=O)(=O)c2ccc(C)cc2)SCCS3)cc1,> 1000 µM

# More lines, now with the values ahead:
row,IC50,Structure (SMILES)
1,439 µM,C/C(=N\NC(=O)Cn1c(=O)c(C)nc2ccccc21)c1ccccc1Cl
2,243 µM,COc1ccc(/C=N/NC(=O)Cn2c(=O)c(C)nc3ccccc32)c(OC)c1
3,272 µM,Cc1nc2ccccc2n(CC(=O)NNC(=O)c2ccc(Cl)cc2)c1=O
4,481 µM,COc1ccc(/C=N/NC(=O)Cn2c(=O)c(C)nc3ccccc32)cc1OC

# Test system: C8166
# Experiment: Cytotoxicity against human C8166 cells after 72 hrs by MTT assay
# Type: functional
# Conditions: C8166, 72 h
row,Structure (SMILES),CC50
1,Cc1ccc(S(=O)(=O)N2CC3(C[C@H]2C(=O)N/N=C/c2ccccc2F)SCCS3)cc1,280 µM
2,Cc1ccc(S(=O)(=O)N2CC3(C[C@H]2C(=O)NN)SCCS3)cc1,> 519 µM
3,Cc1ccc(S(=O)(=O)N2CC3(C[C@H]2C(=O)N/N=C/c2ccccc2Br)SCCS3)cc1,177 µM
4,C/C(=N\NC(=O)Cn1c(=O)c(C)nc2ccccc21)c1ccccc1Cl,> 543 µM
5,COc1ccc(/C=N/NC(=O)Cn2c(=O)c(C)nc3ccccc32)c(OC)c1,> 526 µM
6,Cc1nc2ccccc2n(CC(=O)NNC(=O)c2ccc(Cl)cc2)c1=O,> 540 µM
7,Cc1ccc(S(=O)(=O)N2CC3(C[C@H]2C(=O)N/N=C/c2ccccc2[N+](=O)[O-])SCCS3)cc1,65 µM
8,COc1ccc(/C=N/NC(=O)Cn2c(=O)c(C)nc3ccccc32)cc1OC,> 526 µM
9,Cc1ccc(/C=N/NC(=O)[C@@H]2CC3(CN2S(=O)(=O)c2ccc(C)cc2)SCCS3)cc1,> 421 µM

# Test system: Human immunodeficiency virus 1
# Experiment: Antiviral activity against HIV1 3B infected in human C8166 cells assessed as cytopathic effect by counting the number of syncytia by microscopy
# Type: functional, organism-based
# Conditions: Human immunodeficiency virus 1, 3B
row,Structure (SMILES),EC50
1,Cc1ccc(S(=O)(=O)N2CC3(C[C@H]2C(=O)N/N=C/c2ccccc2F)SCCS3)cc1,38.8 µM
2,Cc1ccc(S(=O)(=O)N2CC3(C[C@H]2C(=O)NN)SCCS3)cc1,239 µM
3,Cc1ccc(S(=O)(=O)N2CC3(C[C@H]2C(=O)N/N=C/c2ccccc2Br)SCCS3)cc1,28 µM
4,Cc1ccc(S(=O)(=O)N2CC3(C[C@H]2C(=O)N/N=C/c2ccccc2[N+](=O)[O-])SCCS3)cc1,32.9 µM
5,Cc1ccc(/C=N/NC(=O)[C@@H]2CC3(CN2S(=O)(=O)c2ccc(C)cc2)SCCS3)cc1,40.5 µM

# More lines, now with the values ahead:
row,EC50,Structure (SMILES)
1,> 543 µM,C/C(=N\NC(=O)Cn1c(=O)c(C)nc2ccccc21)c1ccccc1Cl
2,126 µM,COc1ccc(/C=N/NC(=O)Cn2c(=O)c(C)nc3ccccc32)c(OC)c1
3,169 µM,Cc1nc2ccccc2n(CC(=O)NNC(=O)c2ccc(Cl)cc2)c1=O
4,81 µM,COc1ccc(/C=N/NC(=O)Cn2c(=O)c(C)nc3ccccc32)cc1OC

# Test system: Human immunodeficiency virus 1
# Experiment: Antiviral activity against HIV1 A17 infected in human C8166 cells assessed as reduction in p24 antigen level incubated for 4 hrs followed by cell plating for 72 hrs by ELISA method
# Type: functional, organism-based
# Conditions: Human immunodeficiency virus 1, A17, C8166
row,EC50,Structure (SMILES)
1,18.3 µM,Cc1ccc(S(=O)(=O)N2CC3(C[C@H]2C(=O)N/N=C/c2ccccc2Br)SCCS3)cc1
2,> 200 µM,Cc1ccc(/C=N/NC(=O)[C@@H]2CC3(CN2S(=O)(=O)c2ccc(C)cc2)SCCS3)cc1

# Test system: Human immunodeficiency virus 1
# Experiment: Antiviral activity against HIV1 74V infected in human C8166 cells assessed as reduction in p24 antigen level incubated for 4 hrs followed by cell plating for 72 hrs by ELISA method
# Type: functional, organism-based
# Conditions: Human immunodeficiency virus 1, 74V
row,EC50,Structure (SMILES)
1,30.6 µM,Cc1ccc(S(=O)(=O)N2CC3(C[C@H]2C(=O)N/N=C/c2ccccc2Br)SCCS3)cc1
2,> 200 µM,Cc1ccc(/C=N/NC(=O)[C@@H]2CC3(CN2S(=O)(=O)c2ccc(C)cc2)SCCS3)cc1

# Test system: not listed separately
# Experiment: Therapeutic index, ratio of CC50 for human C8166 cells to EC50 for HIV1 3B infected in human C8166 cells
# Type: cell-based
# Conditions: read-out: Ratio CC50/EC50
row,Structure (SMILES),selectivity ratio
1,Cc1ccc(S(=O)(=O)N2CC3(C[C@H]2C(=O)N/N=C/c2ccccc2F)SCCS3)cc1,7.2
2,Cc1ccc(S(=O)(=O)N2CC3(C[C@H]2C(=O)NN)SCCS3)cc1,> 2.2
3,Cc1ccc(S(=O)(=O)N2CC3(C[C@H]2C(=O)N/N=C/c2ccccc2Br)SCCS3)cc1,6.3
4,COc1ccc(/C=N/NC(=O)Cn2c(=O)c(C)nc3ccccc32)c(OC)c1,> 4.2
5,Cc1nc2ccccc2n(CC(=O)NNC(=O)c2ccc(Cl)cc2)c1=O,> 3.2
6,Cc1ccc(S(=O)(=O)N2CC3(C[C@H]2C(=O)N/N=C/c2ccccc2[N+](=O)[O-])SCCS3)cc1,1.9
7,COc1ccc(/C=N/NC(=O)Cn2c(=O)c(C)nc3ccccc32)cc1OC,> 6.5
8,Cc1ccc(/C=N/NC(=O)[C@@H]2CC3(CN2S(=O)(=O)c2ccc(C)cc2)SCCS3)cc1,> 10.4

# Test system: Human immunodeficiency virus 1
# Experiment: Antiviral activity against HIV1 3B infected in human C8166 cells assessed as reduction in p24 antigen level incubated for 2 hrs followed by cell plating for 72 hrs by ELISA method
# Type: functional, organism-based
# Conditions: Human immunodeficiency virus 1, 3B
row,EC50,Structure (SMILES)
1,33.4 µM,Cc1ccc(S(=O)(=O)N2CC3(C[C@H]2C(=O)N/N=C/c2ccccc2Br)SCCS3)cc1
2,39.3 µM,Cc1ccc(/C=N/NC(=O)[C@@H]2CC3(CN2S(=O)(=O)c2ccc(C)cc2)SCCS3)cc1

# Molecular target: 72 kDa type IV collagenase (Homo sapiens, UniProt P08253)
# Experiment: Inhibition of gelatinase A (unknown origin) after 30 mins using succinylated gelatin as substrate
# Conditions: not given
# Chain of 72 kDa type IV collagenase (P08253 whole entry): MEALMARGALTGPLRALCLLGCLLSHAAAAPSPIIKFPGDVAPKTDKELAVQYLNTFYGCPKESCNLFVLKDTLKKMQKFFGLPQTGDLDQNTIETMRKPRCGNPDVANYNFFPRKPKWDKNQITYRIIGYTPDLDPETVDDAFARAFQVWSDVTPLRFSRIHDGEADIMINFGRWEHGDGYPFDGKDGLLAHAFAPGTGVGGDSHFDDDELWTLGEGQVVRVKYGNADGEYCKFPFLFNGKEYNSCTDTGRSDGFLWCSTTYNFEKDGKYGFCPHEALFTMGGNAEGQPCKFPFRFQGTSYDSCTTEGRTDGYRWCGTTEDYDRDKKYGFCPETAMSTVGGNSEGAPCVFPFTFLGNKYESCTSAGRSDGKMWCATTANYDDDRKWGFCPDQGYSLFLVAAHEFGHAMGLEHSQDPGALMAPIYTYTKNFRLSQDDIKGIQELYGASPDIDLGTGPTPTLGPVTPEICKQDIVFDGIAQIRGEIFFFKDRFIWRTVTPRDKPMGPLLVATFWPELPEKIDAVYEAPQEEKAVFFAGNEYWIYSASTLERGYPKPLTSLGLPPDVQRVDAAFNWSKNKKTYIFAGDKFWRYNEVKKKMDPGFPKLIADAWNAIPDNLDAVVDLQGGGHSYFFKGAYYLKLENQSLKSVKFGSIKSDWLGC
row,Structure (SMILES),IC50
1,Cc1ccc(S(=O)(=O)N2CC3(C[C@H]2C(=O)N/N=C/c2ccccc2F)SCCS3)cc1,1.89 µM
2,Cc1ccc(S(=O)(=O)N2CC3(C[C@H]2C(=O)N/N=C/c2ccccc2Br)SCCS3)cc1,0.41 µM
3,Cc1ccc(S(=O)(=O)N2CC3(C[C@H]2C(=O)N/N=C/c2ccccc2[N+](=O)[O-])SCCS3)cc1,0.24 µM
4,Cc1ccc(/C=N/NC(=O)[C@@H]2CC3(CN2S(=O)(=O)c2ccc(C)cc2)SCCS3)cc1,36.8 µM

# Continued, values first:
row,IC50,Structure (SMILES)
1,112 µM,C/C(=N\NC(=O)Cn1c(=O)c(C)nc2ccccc21)c1ccccc1Cl
2,74.9 µM,COc1ccc(/C=N/NC(=O)Cn2c(=O)c(C)nc3ccccc32)c(OC)c1
3,34.8 µM,Cc1nc2ccccc2n(CC(=O)NNC(=O)c2ccc(Cl)cc2)c1=O
4,28.8 µM,COc1ccc(/C=N/NC(=O)Cn2c(=O)c(C)nc3ccccc32)cc1OC
